# Where two headings read alike, the source gives them in different places.
# How the values were obtained:
# EGFR L858R/T790M = EGFR L858R/T790M (Homo sapiens, UniProt P00533, L858R/T790M); experiment: Kinase inhibitory activity against EGFR bearing the L858R/T790M double mutation; assay type: biochemical; details: 10 μM ATP, read-out: IC50 for kinase inhibition, EGFR L858R T790M
# Method in brief: (§1)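 Testing covers a ten-concentration range beginning at 3 μM, performed once per concentration at an ATP level of 10 μM.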
# EGFR L858R = EGFR L858R (Homo sapiens, UniProt P00533, L858R); experiment: Kinase inhibitory activity against EGFR bearing the L858R mutation; assay type: biochemical; details: 10 μM ATP, read-out: IC50 for kinase inhibition, EGFR L858R
# Sequence of EGFR L858R (P00533 25-1210 L858R): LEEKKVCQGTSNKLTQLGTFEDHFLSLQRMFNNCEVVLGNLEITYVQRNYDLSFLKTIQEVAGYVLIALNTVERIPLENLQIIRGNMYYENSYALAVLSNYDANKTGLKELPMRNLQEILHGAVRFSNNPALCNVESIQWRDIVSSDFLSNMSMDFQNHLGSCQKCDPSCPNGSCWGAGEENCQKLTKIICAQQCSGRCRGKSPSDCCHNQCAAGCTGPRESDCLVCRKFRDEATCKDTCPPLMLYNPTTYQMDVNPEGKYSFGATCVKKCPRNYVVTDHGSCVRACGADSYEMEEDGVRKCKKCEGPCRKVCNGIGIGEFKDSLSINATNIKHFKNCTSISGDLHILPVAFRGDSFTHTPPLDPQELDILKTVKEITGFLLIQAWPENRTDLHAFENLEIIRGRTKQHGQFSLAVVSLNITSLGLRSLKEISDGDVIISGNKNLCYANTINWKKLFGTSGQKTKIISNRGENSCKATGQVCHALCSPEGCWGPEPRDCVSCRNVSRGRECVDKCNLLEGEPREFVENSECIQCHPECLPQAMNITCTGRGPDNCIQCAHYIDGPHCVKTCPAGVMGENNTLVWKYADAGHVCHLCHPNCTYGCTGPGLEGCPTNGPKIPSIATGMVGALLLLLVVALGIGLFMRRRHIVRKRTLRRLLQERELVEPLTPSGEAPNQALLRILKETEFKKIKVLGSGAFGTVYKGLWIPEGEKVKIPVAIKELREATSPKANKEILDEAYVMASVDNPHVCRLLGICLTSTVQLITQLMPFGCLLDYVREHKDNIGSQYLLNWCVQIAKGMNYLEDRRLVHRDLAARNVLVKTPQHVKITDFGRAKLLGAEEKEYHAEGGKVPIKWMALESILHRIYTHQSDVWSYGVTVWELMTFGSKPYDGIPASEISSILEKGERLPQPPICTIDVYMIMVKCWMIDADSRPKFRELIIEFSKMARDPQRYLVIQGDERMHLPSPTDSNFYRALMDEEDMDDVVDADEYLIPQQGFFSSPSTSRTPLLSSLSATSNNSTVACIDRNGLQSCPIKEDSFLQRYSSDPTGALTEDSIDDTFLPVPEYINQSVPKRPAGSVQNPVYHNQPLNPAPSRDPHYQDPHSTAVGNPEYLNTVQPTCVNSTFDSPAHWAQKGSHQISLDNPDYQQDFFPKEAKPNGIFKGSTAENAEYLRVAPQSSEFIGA
# Method in brief: as §1
# [1] = target: T1, BaF3 cells expressing the target EGFR mutations (Homo sapiens, UniProt P00533, T790M, cells depend on it, form not given); experiment: Antiproliferative activity (MTT) against BaF3 cells expressing the target EGFR mutations; assay type: cell-based; details: BAF3 EGFR DEL T790M PURO POOL cells, read-out: IC50, BAF3 EGFR DEL T790M PURO POOL
# T1 construct: IC50, BAF3 EGFR DEL T790M PURO POOL; other: BAF3 EGFR DEL T790M PURO POOL cells, MTT; other: BAF3 EGFR DEL T790M PURO POOL cells; MTT
# T1 sequence (P00533 with tags, fused parts or gaps DEL746-750/T790M, form open): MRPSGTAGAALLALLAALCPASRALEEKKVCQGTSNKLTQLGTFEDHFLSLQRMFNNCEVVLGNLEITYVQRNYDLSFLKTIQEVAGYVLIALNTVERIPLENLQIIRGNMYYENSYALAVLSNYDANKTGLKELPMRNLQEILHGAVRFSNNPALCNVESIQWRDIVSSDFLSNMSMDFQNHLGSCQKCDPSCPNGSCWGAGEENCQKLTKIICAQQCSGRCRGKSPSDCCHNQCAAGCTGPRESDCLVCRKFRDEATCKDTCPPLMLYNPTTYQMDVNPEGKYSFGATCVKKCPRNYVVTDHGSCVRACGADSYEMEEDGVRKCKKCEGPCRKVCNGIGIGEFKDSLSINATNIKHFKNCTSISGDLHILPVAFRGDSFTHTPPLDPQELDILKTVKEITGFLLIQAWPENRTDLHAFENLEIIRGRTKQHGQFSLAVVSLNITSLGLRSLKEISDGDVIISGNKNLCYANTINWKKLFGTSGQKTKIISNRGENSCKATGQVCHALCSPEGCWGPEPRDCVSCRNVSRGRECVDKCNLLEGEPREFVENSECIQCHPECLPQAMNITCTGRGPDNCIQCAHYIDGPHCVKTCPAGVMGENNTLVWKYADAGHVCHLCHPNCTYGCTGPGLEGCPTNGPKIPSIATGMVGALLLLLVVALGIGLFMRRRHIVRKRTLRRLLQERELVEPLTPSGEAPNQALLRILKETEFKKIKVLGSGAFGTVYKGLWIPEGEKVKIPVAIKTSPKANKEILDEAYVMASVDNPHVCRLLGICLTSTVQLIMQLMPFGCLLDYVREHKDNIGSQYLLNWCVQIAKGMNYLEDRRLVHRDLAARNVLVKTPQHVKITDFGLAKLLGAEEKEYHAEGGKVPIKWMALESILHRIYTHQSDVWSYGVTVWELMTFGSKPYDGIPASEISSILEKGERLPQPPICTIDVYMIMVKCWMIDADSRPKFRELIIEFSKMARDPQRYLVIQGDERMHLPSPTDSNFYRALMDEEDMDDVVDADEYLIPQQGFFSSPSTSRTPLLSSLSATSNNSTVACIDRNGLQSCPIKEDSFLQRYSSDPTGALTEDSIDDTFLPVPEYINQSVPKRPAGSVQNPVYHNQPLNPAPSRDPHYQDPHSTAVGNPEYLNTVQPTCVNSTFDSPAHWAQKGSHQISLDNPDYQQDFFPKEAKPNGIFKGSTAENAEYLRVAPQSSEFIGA
# Method in brief: (§2)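 Compounds were tested on BaF3 cells bearing target EGFR mutations and on control BaF3 cells with wildtype EGFR; viability was then determined by MTT.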
# [2] = target: T2, BaF3 cells expressing the target EGFR mutations (Homo sapiens, UniProt P00533, T790M/L858R, cells depend on it); experiment: as above; assay type: cell-based; details: BAF3 EGFR L858R-T790M PURO POOL cells, read-out: IC50, BAF3 EGFR L858R-T790M PURO POOL
# T2 construct: IC50, BAF3 EGFR L858R-T790M PURO POOL; other: BAF3 EGFR L858R-T790M PURO POOL cells, MTT; IC50, BAF3 EGFR L858R-T790M PURO POOL; other: BAF3 EGFR L858R-T790M PURO POOL cells; MTT
# T2 sequence (P00533 whole entry T790M/L858R): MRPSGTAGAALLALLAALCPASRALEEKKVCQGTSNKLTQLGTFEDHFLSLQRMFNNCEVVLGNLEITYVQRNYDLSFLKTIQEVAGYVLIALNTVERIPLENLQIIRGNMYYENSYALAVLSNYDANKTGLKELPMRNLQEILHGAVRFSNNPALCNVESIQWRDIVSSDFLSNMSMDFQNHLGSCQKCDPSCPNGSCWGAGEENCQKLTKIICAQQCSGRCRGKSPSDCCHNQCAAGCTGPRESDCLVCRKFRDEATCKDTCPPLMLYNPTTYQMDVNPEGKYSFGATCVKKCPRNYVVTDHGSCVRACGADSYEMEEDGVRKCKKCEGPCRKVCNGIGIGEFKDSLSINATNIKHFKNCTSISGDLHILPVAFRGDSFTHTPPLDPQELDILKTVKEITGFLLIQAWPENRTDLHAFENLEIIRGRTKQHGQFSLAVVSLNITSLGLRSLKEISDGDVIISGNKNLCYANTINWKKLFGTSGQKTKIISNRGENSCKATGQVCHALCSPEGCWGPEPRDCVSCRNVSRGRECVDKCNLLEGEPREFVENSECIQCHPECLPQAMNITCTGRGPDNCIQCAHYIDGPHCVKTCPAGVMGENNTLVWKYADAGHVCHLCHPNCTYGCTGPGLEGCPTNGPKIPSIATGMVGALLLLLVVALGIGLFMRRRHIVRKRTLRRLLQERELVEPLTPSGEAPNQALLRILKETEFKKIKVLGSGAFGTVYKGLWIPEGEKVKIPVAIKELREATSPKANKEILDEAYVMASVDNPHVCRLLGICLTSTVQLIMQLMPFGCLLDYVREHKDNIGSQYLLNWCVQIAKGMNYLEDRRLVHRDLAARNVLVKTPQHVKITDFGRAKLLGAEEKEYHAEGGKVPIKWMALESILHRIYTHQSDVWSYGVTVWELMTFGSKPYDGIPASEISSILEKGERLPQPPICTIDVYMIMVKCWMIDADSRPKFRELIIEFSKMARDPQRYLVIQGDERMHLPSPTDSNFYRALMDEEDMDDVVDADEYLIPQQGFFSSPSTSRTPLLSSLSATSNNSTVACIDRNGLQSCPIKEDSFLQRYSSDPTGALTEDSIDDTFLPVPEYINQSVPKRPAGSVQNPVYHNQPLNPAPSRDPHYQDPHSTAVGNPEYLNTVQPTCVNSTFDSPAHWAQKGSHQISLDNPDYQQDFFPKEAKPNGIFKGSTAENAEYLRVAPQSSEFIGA
# Method in brief: as §2
# [3] = target: human EGFR (native sequence) (Homo sapiens, UniProt P00533); experiment: Kinase inhibitory activity against human EGFR (native sequence); assay type: biochemical; details: 10 μM ATP, read-out: IC50 for kinase inhibition, EGFR
# Sequence of human EGFR (native sequence) (P00533 25-1210): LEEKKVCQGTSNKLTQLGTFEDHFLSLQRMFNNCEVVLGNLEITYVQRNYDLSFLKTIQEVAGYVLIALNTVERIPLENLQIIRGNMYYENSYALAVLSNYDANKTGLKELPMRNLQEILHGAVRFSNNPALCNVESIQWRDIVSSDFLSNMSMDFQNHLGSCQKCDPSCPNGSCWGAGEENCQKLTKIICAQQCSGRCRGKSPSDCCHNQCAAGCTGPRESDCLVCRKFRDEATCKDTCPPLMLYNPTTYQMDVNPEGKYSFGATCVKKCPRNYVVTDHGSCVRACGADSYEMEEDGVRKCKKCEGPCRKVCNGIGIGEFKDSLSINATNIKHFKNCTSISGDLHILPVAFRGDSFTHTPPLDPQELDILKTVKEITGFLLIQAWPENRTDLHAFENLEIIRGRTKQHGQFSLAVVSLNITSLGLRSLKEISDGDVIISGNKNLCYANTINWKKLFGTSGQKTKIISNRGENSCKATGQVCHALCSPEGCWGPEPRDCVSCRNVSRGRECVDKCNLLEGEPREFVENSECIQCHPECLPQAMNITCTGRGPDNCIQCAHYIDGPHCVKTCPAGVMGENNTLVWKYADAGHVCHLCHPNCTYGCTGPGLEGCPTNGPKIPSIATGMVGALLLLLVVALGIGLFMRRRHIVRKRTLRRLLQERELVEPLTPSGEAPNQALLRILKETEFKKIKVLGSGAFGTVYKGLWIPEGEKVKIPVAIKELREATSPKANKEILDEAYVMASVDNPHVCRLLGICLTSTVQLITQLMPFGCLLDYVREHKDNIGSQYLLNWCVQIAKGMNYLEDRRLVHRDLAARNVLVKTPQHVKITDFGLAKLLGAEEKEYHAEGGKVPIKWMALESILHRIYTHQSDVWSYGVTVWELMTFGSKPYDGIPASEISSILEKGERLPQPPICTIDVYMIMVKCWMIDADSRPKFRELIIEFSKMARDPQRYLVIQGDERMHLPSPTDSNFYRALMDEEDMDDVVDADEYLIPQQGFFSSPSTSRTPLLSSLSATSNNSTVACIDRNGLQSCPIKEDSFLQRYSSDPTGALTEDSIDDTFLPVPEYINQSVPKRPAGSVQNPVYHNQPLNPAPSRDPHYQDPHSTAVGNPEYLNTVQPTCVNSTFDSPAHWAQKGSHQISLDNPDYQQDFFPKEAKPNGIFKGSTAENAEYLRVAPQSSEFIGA
# Method in brief: as §1
# [4] = tested on: BaF3 cells expressing wildtype EGFR; experiment: Antiproliferative activity (MTT) against control BaF3 cells expressing wildtype EGFR; assay type: cell-based; details: Mus musculus
# Method in brief: as §2
# [5] = EGFR L858R/T790M double mutation
# [6] = 10 pt curves, 3 μM top concentration
SMILES,IC50 (EGFR L858R/T790M; [5]) [nM],IC50 (EGFR L858R; EGFR L858R) [nM],GI50 [1] [nM],GI50 [2] [nM],IC50 ([3]; human EGFR native sequence) [nM],IC50 ([4]; BAF3 PARENTAL cells (control)) [nM],IC50 (EGFR L858R/T790M; [6]) [nM],IC50 (EGFR L858R; [6]) [nM],"IC50 [3, 6] [nM]",IC50 ([4]; BAF3 parental cells) [nM]
"C=CC(=O)Nc1ccc(OC)c(Nc2ncc(Cl)c(Nc3ccc(OC4CCOC4)cc3P(C)(C)=O)n2)c1 (stereo not drawn) [Example 99, N-(3-((5-chloro-4-((2-(dimethylphosphoryl)-4-((tetrahydrofuran-3-yl)oxy)phenyl)amino)pyrimidin-2-yl)amino)-4-methoxyphenyl)acrylamide]",< 50,< 50,< 50,50 to 100,< 50,≥ 250,,,,
"C=CC(=O)Nc1ccc(OC)c(Nc2ncc(Cl)c(Nc3ccc(OCC4CCOCC4)cc3P(C)(C)=O)n2)c1 [Example 100, N-(3-((5-chloro-4-((2-(dimethylphosphoryl)-4-((tetrahydro-2H-pyran-4-yl)methoxy)phenyl)amino)pyrimidin-2-yl)amino)-4-methoxyphenyl)acrylamide]",< 50,< 50,< 50,< 50,50 to 100,≥ 250,,,,
"COc1cc(N2CCOCC2)c(NC(=O)C#CCCN2CCCCC2)cc1Nc1ncc(Cl)c(Nc2ccccc2P(C)(C)=O)n1 [Example 101, N-(5-((5-chloro-4-((2-(dimethylphosphoryl)phenyl)amino)pyrimidin-2-yl)amino)-4-methoxy-2-morpholinophenyl)-5-(piperidin-1-yl)pent-2-ynamide]",< 50,< 50,< 50,< 50,< 50,≥ 250,,,,
"CC#CC(=O)Nc1cc(Nc2ncc(Cl)c(Nc3ccccc3P(C)(C)=O)n2)c(OC)cc1OCC1CCOCC1 [Example 102, N-(5-((5-chloro-4-((2-(dimethylphosphoryl)phenyl)amino)pyrimidin-2-yl)amino)-4-methoxy-2-((tetrahydro-2H-pyran-4-yl)methoxy)phenyl)but-2-ynamide]",≥ 250,101 to 250,< 50,50 to 100,≥ 250,≥ 250,,,,
"CC#CC(=O)Nc1cc(Nc2ncc(Cl)c(Nc3ccccc3P(C)(C)=O)n2)c(OC)cc1OC1COC1 [Example 103, N-(5-((5-chloro-4-((2-(dimethylphosphoryl)phenyl)amino)pyrimidin-2-yl)amino)-4-methoxy-2-(oxetan-3-yloxy)phenyl)but-2-ynamide]",,,< 50,50 to 100,,,50 to 100,< 50,≥ 250,≥ 250
"COc1cc(N2CCOCC2)c(NC(=O)C#CCN(C)C)cc1Nc1ncc(Cl)c(Nc2ccccc2P(C)(C)=O)n1 [Example 104, N-(5-((5-chloro-4-((2-(dimethylphosphoryl)phenyl)amino)pyrimidin-2-yl)amino)-4-methoxy-2-morpholinophenyl)-4-(dimethylamino)but-2-ynamide]",,,< 50,< 50,,,< 50,< 50,< 50,≥ 250
"COCC#CC(=O)Nc1cc(Nc2ncc(Cl)c(Nc3ccccc3P(C)(C)=O)n2)c(OC)cc1N1CCOCC1 [Example 105, N-(5-((5-chloro-4-((2-(dimethylphosphoryl)phenyl)amino)pyrimidin-2-yl)amino)-4-methoxy-2-morpholinophenyl)-4-methoxybut-2-ynamide]",,,< 50,< 50,,,< 50,< 50,< 50,≥ 250
"CC#CC(=O)Nc1cc(Nc2ncc(Cl)c(Nc3ccccc3P(C)(C)=O)n2)c(OC)cc1N1CCC(N2CCN(C)CC2)CC1 [Example 106, N-(5-((5-chloro-4-((2-(dimethylphosphoryl)phenyl)amino)pyrimidin-2-yl)amino)-4-methoxy-2-(4-(4-methylpiperazin-1-yl)piperidin-1-yl)phenyl)but-2-ynamide]",,,< 50,< 50,,,< 50,< 50,50 to 100,≥ 250
"C=CC(=O)Nc1ccc(Nc2ncc(Cl)c(Nc3cccc(OCCN4CCCCC4)c3P(C)(C)=O)n2)c(OC)c1 [Example 107, N-(4-((5-chloro-4-((2-(dimethylphosphoryl)-3-(2-(piperidin-1-yl)ethoxy)phenyl)amino)pyrimidin-2-yl)amino)-3-methoxyphenyl)acrylamide]",,,< 50,101 to 250,,,< 50,< 50,101 to 250,≥ 250
"C=CC(=O)Nc1ccc(OC)c(Nc2ncc(Cl)c(Nc3ccc(OCCN4CCCCC4)cc3P(C)(C)=O)n2)c1 [Example 108, N-(3-((5-chloro-4-((2-(dimethylphosphoryl)-4-(2-(piperidin-1-yl)ethoxy)phenyl)amino)pyrimidin-2-yl)amino)-4-methoxyphenyl)acrylamide]",,,< 50,< 50,,,< 50,< 50,< 50,≥ 250
"CNC(=O)/C=C/C(=O)Nc1ccc(OC)c(Nc2ncc(Cl)c(Nc3ccccc3P(C)(C)=O)n2)c1 [Example 109, N1-(3-((5-chloro-4-((2-(dimethylphosphoryl)phenyl)amino)pyrimidin-2-yl)amino)-4-methoxyphenyl)-N4-methylfumaramide]",,,50 to 100,101 to 250,,,< 50,< 50,≥ 250,≥ 250
"CNC(=O)/C=C\C(=O)Nc1ccc(OC)c(Nc2ncc(Cl)c(Nc3ccccc3P(C)(C)=O)n2)c1 [Example 110, N1-(3-((5-chloro-4-((2-(dimethylphosphoryl)phenyl)amino)pyrimidin-2-yl)amino)-4-methoxyphenyl)-N4-methylmaleamide]",,,< 50,101 to 250,,,< 50,< 50,≥ 250,≥ 250
"COCC#CC(=O)Nc1cc(Nc2ncc(Cl)c(Nc3ccccc3P(C)(C)=O)n2)c(OC)cc1N1CCC(N(C)C)C1 (stereo not drawn) [Example 111, N-(5-((5-chloro-4-((2-(dimethylphosphoryl)phenyl)amino)pyrimidin-2-yl)amino)-2-(3-(dimethylamino)pyrrolidin-1-yl)-4-methoxyphenyl)-4-methoxybut-2-ynamide]",,,< 50,< 50,,,< 50,< 50,< 50,≥ 250
"CC#CC(=O)Nc1cc(Nc2ncc(Cl)c(Nc3ccccc3P(C)(C)=O)n2)c(OC)cc1N1CCC(N(C)C)C1 (stereo not drawn) [Example 112, N-(5-((5-chloro-4-((2-(dimethylphosphoryl)phenyl)amino)pyrimidin-2-yl)amino)-2-(3-(dimethylamino)pyrrolidin-1-yl)-4-methoxyphenyl)but-2-ynamide]",,,< 50,50 to 100,,,< 50,< 50,< 50,≥ 250
"COc1cc(N2CCOCC2)c(NC(=O)C#CCCN(C)C)cc1Nc1ncc(Cl)c(Nc2ccccc2P(C)(C)=O)n1 [Example 114, N-(5-((5-chloro-4-((2-(dimethylphosphoryl)phenyl)amino)pyrimidin-2-yl)amino)-4-methoxy-2-morpholinophenyl)-5-(dimethylamino)pent-2-ynamide]",,,< 50,< 50,,,< 50,< 50,< 50,≥ 250
"COCCC#CC(=O)Nc1cc(Nc2ncc(Cl)c(Nc3ccccc3P(C)(C)=O)n2)c(OC)cc1N1CCOCC1 [Example 115, N-(5-((5-chloro-4-((2-(dimethylphosphoryl)phenyl)amino)pyrimidin-2-yl)amino)-4-methoxy-2-morpholinophenyl)-5-methoxypent-2-ynamide]",,,< 50,< 50,,,< 50,< 50,< 50,≥ 250
"C=CC(=O)Nc1cc(Nc2ncc(Cl)c(Nc3ccccc3P(C)(C)=O)n2)c(OC)cc1C#CC(C)(C)N1CCCC1 [Example 116, N-(5-((5-chloro-4-((2-(dimethylphosphoryl)phenyl)amino)pyrimidin-2-yl)amino)-4-methoxy-2-(3-methyl-3-(pyrrolidin-1-yl)but-1-yn-1-yl)phenyl)acrylamide]",,,< 50,< 50,,,< 50,< 50,50 to 100,≥ 250

# Reference: patent publication US9834571B2, “Compounds for inhibiting cell proliferation in EGFR-driven cancers” (ARIAD Pharmaceuticals, Inc., priority 2012, dated 2017)
